This note sets out measurements from patent US9757350B2, “Small molecule inhibitors of replication protein A that also act synergistically with cisplatin” (Indiana University Research and Technology Corp., priority 2010, dated 2017).

Format in all cases: cell-based
Assay [1] has as its system H460 cells. In words: Crystal violet cell viability assay, H460. As to the method:
Referring now to FIG. 11A. Gel showing effect of MCI13E on DNA-RPA binding. […] Cytotoxicity was analyzed via crystal violet analysis as described in “methods” 48 hours following MCI13E treatment. Data represent the average and standard deviation of four replicate experiments with each replicate containing triplicate determinations and the circles represent data from H460 cells and squares A549 cells. Referring now to FIG. 11C. Graph of MCI13E induced death via apoptosis in NSCLC cell lines. Cell were treated with the indicated concentrations of MCI13E for 48 hours and analyzed for the induction of apoptosis via Annexin V/PI staining Referring now to FIG. 11D. Graph of cell survival as a function of [MCI1EC]. Percent survival was calculated for each cell line using untreated cells as a control. Data presented are the average and standard deviation from four replicate experiments. Experiments were performed in non-small cell lung cancer (NSCLC) cell lines A549 (squares), an adenocarcinoma, and the large cell carcinoma H460 cell line (circles).
Cell Viability Assays—A crystal violet cell viability assay was performed to determine cytotoxicity of SMI. Lung cancer cell lines, A549 and H460, were plated in 24-well dishes at 5×10^4 total cells. Forty-eight hours after plating, the cells were treated for […] with variable concentrations of SMIs. The media was aspirated, cells washed with 500 μl of PBS/EDTA and stained for 10 minutes with crystal violet solution (50% Ethanol, 0.75% crystal violet). Stained cells were resuspended in 500 μl DMSO containing 1% SDS and absorbance was measured at 590 nm in a SpectraMax M5 plate reader (Molecular Devices, Sunnyvale, Calif.) and analyzed using SoftMax Pro 5.2. Percent viability is taken as an absorbance percentage against control untreated cells. Values plotted represent four separate plate replicates and each plate replicate contained three assay replicates per plate.

For assay [2], the system named is p53. In words: Western blot of p53 serine-15 phosphorylation. Conditions: A549, western blot. As to the method:
Real-Time PCR—A549 cells were plated in 10 cm dishes at 1.5×10^6, allowed to adhere, and treated for 24-48 hours with cisplatin or SMIs (5 μM). Referring now to FIG. 16B, Western blot of cells treated sequentially. For sequential treatment, A549 cells were exposed to cisplatin for 24 hours followed by the addition of SMIs for another 24 hours as above. Referring now to FIG. 16A, A549 cells were treated sequentially or concurrently with cisplatin (5 μM) and MCI13E or MCI13F for 24 total hours. Lysates were probed for p53-ser15-phosphorylation or phosphorylated-ATM. GAPDH was probed as a loading control. Concurrently treated cells were incubated simultaneously with both cisplatin and MCIs for 24 hours. RNA was extracted using RNeasy minikit (Qiagen, Germantown, Md.) per manufacturer's protocol. cDNA was generated using Applied Biosystem's (ABI) High Capacity RNA-to-cDNA kit. Validated gene primer/probe sets, also from ABI, were used for Quantitative Real Time-PCR. ABI's ΔΔCT Relative Quantification methodology was used for the analyses (applied Biosystems). Data were normalized to the housekeeping gene GAPDH and calibrated to the mock treated samples. Results presented are the average of two separate cell treatments/RNA isolations with duplicate Taqman Assays per RNA sample set. […]
A general note: Immunoblotting shows a protein as a band on a membrane.

In assay [3] the test system is p21. The assay is described as follows: Quantitative real-time PCR of p21 mRNA. Conditions: A549, versus untreated control. Here is the method: Real-Time PCR—A549 cells were plated in 10 cm dishes at 1.5×10^6, allowed to adhere, and treated for 24-48 hours with cisplatin or SMIs (5 μM). Referring now to FIG. 16B, Western blot of cells treated sequentially. For sequential treatment, A549 cells were exposed to cisplatin for 24 hours followed by the addition of SMIs for another 24 hours as above. Referring now to FIG. 16A, A549 cells were treated sequentially or concurrently with cisplatin (5 μM) and MCI13E or MCI13F for 24 total hours. Lysates were probed for p53-ser15-phosphorylation or phosphorylated-ATM. GAPDH was probed as a loading control. Concurrently treated cells were incubated simultaneously with both cisplatin and MCIs for 24 hours. RNA was extracted using RNeasy minikit (Qiagen, Germantown, Md.) per manufacturer's protocol. cDNA was generated using Applied Biosystem's (ABI) High Capacity RNA-to-cDNA kit. Validated gene primer/probe sets, also from ABI, were used for Quantitative Real Time-PCR. ABI's ΔΔCT Relative Quantification methodology was used for the analyses (applied Biosystems). Data were normalized to the housekeeping gene GAPDH and calibrated to the mock treated samples. Results presented are the average of two separate cell treatments/RNA isolations with duplicate Taqman Assays per RNA sample set.
Referring now to FIG. 15A. Plot of Quantitative Real Time PCR analyses of mRNA expression changes of A549 cells treated with MCI13E, MCI13F and Cisplatin. Data represents the average of four separate Q-RT PCR Assays. Genes of interest were normalized to GAPDH transcript levels, and are presented as fold changes relative to untreated cell samples. Cisplatin treatment increases transcription of DDB2 (A). Referring now to FIG. 15B. Bar graph of P21/GAPDH measured in cells subjected to different treatment schemes. Referring now to FIG. 15C. Bar graph of XPC/GAPDH measured under different treatment regimes XPC Concurrent MCI/Cisplatin treated cells show a decrease in gene transcription when compared to cells treated with Cisplatin alone (24 hour).
In general terms: In qPCR the cycle at which signal appears reflects the starting amount.

As usually defined, the IC50 is the concentration at which inhibition is half-maximal. High values mean a need for much substance, low ones inhibition by little substance.

Regarding `CC1(C)C2CCC1(C)C(OC(=O)CBr)C2` (racemic) [MCI13E, (+/−)-Isobornyl bromoacetate], in assay [1] (48 hours, crystal violet), the IC50 is roughly 5 µM. For the same compound, the “p53 serine-15 phosphorylation, single agent” value in assay [2] is listed as “minimal single-agent effects on p53 phosphorylation”. Moreover, in assay [3], the “p21 mRNA expression, single agent” value was “only slightly increases the expression level of p21”.

In the case of `CC1(C)C2CCC1(C)C(OC(=O)CI)C2` (racemic) [MCI13F, (+/−)-Isobornyl iodoacetate], the IC50 in assay [1] (48 hours after exposing the cells) is 4 µM; in assay [1] (48 hours, crystal violet), roughly 5 µM. The “p53 serine-15 phosphorylation, single agent” value in assay [2] is reported as “minimal single-agent effects on p53 phosphorylation”. For the same compound, in assay [3], the “p21 mRNA expression, single agent” value is recorded as “only slightly increases the expression level of p21”.
